Laboratory results: the supplement of paper PMC10307832

Assays:
Test in all cases: relative viability (nuclei count vs DMSO), 5 days (fraction); higher = more cells survive
[1] = system: NCI-H596
Method in brief: (§1)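 Lung cancer cell lines in 1536-well plates were dosed by pin tool the day after seeding, either with one drug alone or with a fixed anchor-drug dose plus five library-drug doses (not always all listed) in √10 steps. After 5 days, cells were fixed and their nuclei stained in one step (final 0.05% Triton X-100, 1% formaldehyde, 1 ug/ml Hoechst), then counted on 4× images. Relative viability is the nuclei count in treated wells divided by that in vehicle wells. Values are medians of duplicate plates.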

[2] = system: NCI-H520
Method in brief: as §1

[3] = system: RERF-LC-KJ
Method in brief: as §1

[4] = system: NCI-H1944
Method in brief: as §1

[5] = system: NCI-H727
Method in brief: as §1

[6] = system: CAL-12T
Method in brief: as §1

[7] = system: HARA
Method in brief: as §1

[8] = system: NCI-H838
Method in brief: as §1

[9] = system: NCI-H661
Method in brief: as §1

[10] = system: NCI-H2085
Method in brief: as §1

[11] = system: NCI-H1651
Method in brief: as §1

[12] = system: NCI-H1666
Method in brief: as §1

[13] = system: NCI-H1975
Method in brief: as §1

[14] = system: NCI-H1734
Method in brief: as §1

[15] = system: LOU-NH91
Method in brief: as §1

[16] = system: NCI-H647
Method in brief: as §1

[17] = system: LCLC-103H
Method in brief: as §1

[18] = system: NCI-H2126
Method in brief: as §1

[19] = system: BEN
Method in brief: as §1

[20] = system: SW 900
Method in brief: as §1

[21] = system: ABC-1
Method in brief: as §1

[22] = system: NCI-H460
Method in brief: as §1

[23] = system: A-427
Method in brief: as §1

Compound: CCNC(=O)c1noc(-c2cc(C(C)C)c(O)cc2O)c1-c1ccc(CN2CCOCC2)cc1 [Luminespib] + N=C(N)NC(=N)NCCc1ccccc1 [Phenformin] (partner 250 µM)
- relative viability ([1]; first compound 0.002 µM): 0.648
- relative viability ([1]; first compound 0.006325 µM): 0.621
- relative viability ([1]; first compound 0.02 µM): 0.588
- relative viability ([1]; first compound 0.06325 µM): 0.61
- relative viability ([1]; first compound 0.2 µM): 0.58
- relative viability ([2]; first compound 0.002 µM): 0.634
- relative viability ([2]; first compound 0.006325 µM): 0.537
- relative viability ([2]; first compound 0.02 µM): 0.248
- relative viability ([2]; first compound 0.06325 µM): 0.138
- relative viability ([2]; first compound 0.2 µM): 0.191
- relative viability ([3]; first compound 0.002 µM): 0.409
- relative viability ([3]; first compound 0.006325 µM): 0.418
- relative viability ([3]; first compound 0.02 µM): 0.512
- relative viability ([3]; first compound 0.06325 µM): 0.25
- relative viability ([3]; first compound 0.2 µM): 0.238
- relative viability ([4]; first compound 0.002 µM): 0.219
- relative viability ([4]; first compound 0.006325 µM): 0.189
- relative viability ([4]; first compound 0.02 µM): 0.205
- relative viability ([4]; first compound 0.06325 µM): 0.112
- relative viability ([4]; first compound 0.2 µM): 0.111
- relative viability ([5]; first compound 0.002 µM): 0.564
- relative viability ([5]; first compound 0.006325 µM): 0.398
- relative viability ([5]; first compound 0.02 µM): 0.361
- relative viability ([5]; first compound 0.06325 µM): 0.318
- relative viability ([5]; first compound 0.2 µM): 0.175
- relative viability ([6]; first compound 0.002 µM): 0.578
- relative viability ([6]; first compound 0.006325 µM): 0.512
- relative viability ([6]; first compound 0.02 µM): 0.15
- relative viability ([6]; first compound 0.06325 µM): 0.101
- relative viability ([6]; first compound 0.2 µM): 0.0963
- relative viability ([7]; first compound 0.002 µM): 0.484
- relative viability ([7]; first compound 0.006325 µM): 0.422
- relative viability ([7]; first compound 0.02 µM): 0.485
- relative viability ([7]; first compound 0.06325 µM): 0.245
- relative viability ([7]; first compound 0.2 µM): 0.0594
- relative viability ([8]; first compound 0.002 µM): 0.664
- relative viability ([8]; first compound 0.006325 µM): 0.55
- relative viability ([8]; first compound 0.02 µM): 0.257
- relative viability ([8]; first compound 0.06325 µM): 0.107
- relative viability ([8]; first compound 0.2 µM): 0.114
- relative viability ([9]; first compound 0.002 µM): 0.262
- relative viability ([9]; first compound 0.006325 µM): 0.279
- relative viability ([9]; first compound 0.02 µM): 0.27
- relative viability ([9]; first compound 0.06325 µM): 0.241
- relative viability ([9]; first compound 0.2 µM): 0.191
- relative viability ([10]; first compound 0.002 µM): 0.807
- relative viability ([10]; first compound 0.006325 µM): 0.713
- relative viability ([10]; first compound 0.02 µM): 0.408
- relative viability ([10]; first compound 0.06325 µM): 0.221
- relative viability ([10]; first compound 0.2 µM): 0.225
- relative viability ([11]; first compound 0.002 µM): 0.298
- relative viability ([11]; first compound 0.006325 µM): 0.293
- relative viability ([11]; first compound 0.02 µM): 0.304
- relative viability ([11]; first compound 0.06325 µM): 0.108
- relative viability ([11]; first compound 0.2 µM): 0.141
- relative viability ([12]; first compound 0.002 µM): 0.583
- relative viability ([12]; first compound 0.006325 µM): 0.533
- relative viability ([12]; first compound 0.02 µM): 0.574
- relative viability ([12]; first compound 0.06325 µM): 0.532
- relative viability ([12]; first compound 0.2 µM): 0.538
- relative viability ([13]; first compound 0.002 µM): 0.401
- relative viability ([13]; first compound 0.006325 µM): 0.37
- relative viability ([13]; first compound 0.02 µM): 0.169
- relative viability ([13]; first compound 0.06325 µM): 0.118
- relative viability ([13]; first compound 0.2 µM): 0.118
- relative viability ([14]; first compound 0.002 µM): 0.464
- relative viability ([14]; first compound 0.006325 µM): 0.356
- relative viability ([14]; first compound 0.02 µM): 0.3
- relative viability ([14]; first compound 0.06325 µM): 0.103
- relative viability ([14]; first compound 0.2 µM): 0.116
- relative viability ([15]; first compound 0.002 µM): 0.741
- relative viability ([15]; first compound 0.006325 µM): 0.716
- relative viability ([15]; first compound 0.02 µM): 0.525
- relative viability ([15]; first compound 0.06325 µM): 0.287
- relative viability ([15]; first compound 0.2 µM): 0.322
- relative viability ([16]; first compound 0.002 µM): 0.396
- relative viability ([16]; first compound 0.006325 µM): 0.504
- relative viability ([16]; first compound 0.02 µM): 0.429
- relative viability ([16]; first compound 0.06325 µM): 0.0796
- relative viability ([16]; first compound 0.2 µM): 0.0823
- relative viability ([17]; first compound 0.002 µM): 0.322
- relative viability ([17]; first compound 0.006325 µM): 0.361
- relative viability ([17]; first compound 0.02 µM): 0.351
- relative viability ([17]; first compound 0.06325 µM): 0.353
- relative viability ([17]; first compound 0.2 µM): 0.188
- relative viability ([18]; first compound 0.002 µM): 0.523
- relative viability ([18]; first compound 0.006325 µM): 0.506
- relative viability ([18]; first compound 0.02 µM): 0.497
- relative viability ([18]; first compound 0.06325 µM): 0.279
- relative viability ([18]; first compound 0.2 µM): 0.307
- relative viability ([19]; first compound 0.002 µM): 0.259
- relative viability ([19]; first compound 0.006325 µM): 0.268
- relative viability ([19]; first compound 0.02 µM): 0.273
- relative viability ([19]; first compound 0.06325 µM): 0.216
- relative viability ([19]; first compound 0.2 µM): 0.199
- relative viability ([20]; first compound 0.002 µM): 0.625
- relative viability ([20]; first compound 0.006325 µM): 0.489
- relative viability ([20]; first compound 0.02 µM): 0.344
- relative viability ([20]; first compound 0.06325 µM): 0.0721
- relative viability ([20]; first compound 0.2 µM): 0.124
- relative viability ([21]; first compound 0.002 µM): 0.223
- relative viability ([21]; first compound 0.006325 µM): 0.272
- relative viability ([21]; first compound 0.02 µM): 0.241
- relative viability ([21]; first compound 0.06325 µM): 0.2
- relative viability ([21]; first compound 0.2 µM): 0.233
- relative viability ([22]; first compound 0.002 µM): 0.616
- relative viability ([22]; first compound 0.006325 µM): 0.458
- relative viability ([22]; first compound 0.02 µM): 0.0329
- relative viability ([22]; first compound 0.06325 µM): 0.0168
- relative viability ([22]; first compound 0.2 µM): 0.0232
- relative viability ([23]; first compound 0.002 µM): 0.354
- relative viability ([23]; first compound 0.006325 µM): 0.377
- relative viability ([23]; first compound 0.02 µM): 0.275
- relative viability ([23]; first compound 0.06325 µM): 0.101
- relative viability ([23]; first compound 0.2 µM): 0.128
